From the Kinase Knowledgebase extract (Sharma et al. 2016)

Biological target: CDK2 (human) (UniProt P24941)
Experiment: Enzyme Assay

IC50 [µM] | Structure (SMILES)
≥ 40 | O=C(Nc1ccc(-n2cncn2)cc1)c1ccc(C(=O)N2CCCC2c2cccnc2)s1 (stereo not drawn)
≤ 1 | Cc1cc(OCCO)ccc1NC(=O)c1ccc(C(=O)Nc2ccc(-n3cncn3)cc2)s1
1 to 40 | Cc1cc(CN(C)C)ccc1NC(=O)c1ccc(C(=O)Nc2ccc(-n3cncn3)c(F)c2)s1
≥ 40 | Cc1cc(CNC(=O)c2ccc(C(=O)Nc3ccc(-n4cncn4)cc3)s2)no1
≥ 40 | CN1CCN(c2ccccc2NC(=O)c2ccc(C(=O)Nc3ccc(-n4cncn4)c(F)c3)s2)CC1
≥ 40 | Cc1ccnc(NC(=O)c2ccc(C(=O)Nc3ccc(-n4cncn4)cc3)s2)c1
1 to 40 | CNCc1ccc(NC(=O)c2ccc(C(=O)Nc3ccc(-n4cncn4)c(F)c3)s2)c(C)c1
≥ 40 | COc1ccc(NC(=O)c2ccc(C(=O)Nc3ccc(-c4csnn4)cc3)s2)c(C)c1
≤ 1 | COc1ccc(NC(=O)c2ccc(C(=O)Nc3ccc(-c4nc[nH]n4)c(F)c3)s2)c(C)c1
1 to 40 | O=C(Nc1ccc(-n2cncn2)cc1)c1ccc(C(=O)N2CCc3ccccc3C2)s1
1 to 40 | O=C(Nc1ccc(-n2cncn2)c(F)c1)c1ccc(C(=O)Nc2ccccc2-c2ccccc2)s1
≥ 40 | O=C(NC[C@@H]1CCNC1)c1ccc(C(=O)Nc2ccc(-n3cncn3)cc2)s1
≥ 40 | COc1ccccc1NC(=O)c1ccc(C(=O)Nc2ccc(-n3cncn3)c(F)c2)s1
≥ 40 | CNC(=O)c1ccc(C(=O)Nc2ccc(-n3cncn3)c(F)c2)o1
≥ 40 | COc1ccc(NC(=O)c2ccc(C(=O)Nc3ccc(N4CCNCC4)cc3)s2)c(C)c1
≥ 40 | COc1ccc(NC(=O)c2ccc(C(=O)Nc3ccc4ncccc4c3)s2)c(C)c1
1 to 40 | O=C(NCCc1cccnc1)c1ccc(C(=O)Nc2ccc(-n3cncn3)cc2)s1
≥ 40 | O=C(NC[C@@H]1CCCO1)c1ccc(C(=O)Nc2ccc(-n3cncn3)cc2)s1
≥ 40 | O=C(NCCN1CCCCC1)c1ccc(C(=O)Nc2ccc(-n3cncn3)cc2)s1
1 to 40 | COc1cccc(NC(=O)c2ccc(C(=O)Nc3ccc(-n4cncn4)cc3)s2)c1OC
≤ 1 | COc1ccc(NC(=O)c2ccc(C(=O)Nc3ccc(-c4nc[nH]n4)c(F)c3)o2)c(C)c1
≤ 1 | Cc1cc(CN2CCN(C)CC2)ccc1NC(=O)c1ccc(C(=O)Nc2ccc(-n3cncn3)c(F)c2)s1
≤ 1 | COc1ccc(C(=O)Nc2ccc(C(=O)Nc3ccc(-c4nc[nH]n4)c(F)c3)s2)c(C)c1
≤ 1 | Cc1cc(N2CCNCC2)ccc1NC(=O)c1ccc(C(=O)Nc2ccc(-n3cncn3)cc2)s1
≥ 40 | COc1ccc(NC(=O)c2ccc(C(=O)Nc3ccc(OCCN(C)C)cc3)s2)c(C)c1

IC50 [µM] | Structure (SMILES)
≥ 40 | O=C(NCc1ccncc1)c1ccc(C(=O)Nc2ccc(-n3cncn3)cc2)s1
≤ 1 | O=C(Nc1ccc(C(=O)Nc2ccc(-n3cncn3)cc2)s1)c1ccccc1
≥ 40 | O=C(Nc1ccc(-n2cncn2)c(F)c1)c1ccc(C(=O)Nc2ccccc2Oc2cccnc2)s1
≤ 1 | Cc1cc(N[C@H]2CCNC2)ccc1NC(=O)c1ccc(C(=O)Nc2ccc(-n3cncn3)c(F)c2)s1
≥ 40 | Cn1cnc(CCNC(=O)c2ccc(C(=O)Nc3ccc(-n4cncn4)cc3)s2)c1
≥ 40 | COc1ccc(NC(=O)c2ccc(C(=O)Nc3ccc(C(N)=O)cc3)s2)c(C)c1
≥ 40 | O=C(Nc1ccc(-n2cncn2)cc1)c1ccc(C(=O)N2CCCCC2)s1
≤ 1 | Cc1cc(N2CCOCC2)ccc1NC(=O)c1ccc(C(=O)Nc2ccc(-n3cncn3)c(F)c2)s1
≥ 40 | COc1cccc(C2CCN(C(=O)c3ccc(C(=O)Nc4ccc(-n5cncn5)cc4)s3)C2)c1 (stereo not drawn)
≥ 40 | Cc1ccccc1C(=O)Nc1ccc(C(=O)Nc2ccc(-n3cncn3)cc2)o1
≥ 40 | COc1ccc(NC(=O)c2ccc(C(=O)Nc3ccc(N(C)C)cc3)s2)c(C)c1
≥ 40 | O=C(Nc1ccc(-n2cncn2)cc1)c1ccc(C(=O)NC2Cc3ccccc3C2)s1
≥ 40 | COc1ccc(NC(=O)c2ccc(C(=O)Nc3ccc4c(cnn4C)c3)s2)c(C)c1
≥ 40 | O=C(Nc1ccc(-n2cncn2)cc1)c1ccc(C(=O)N2CCCC(c3ccccc3)C2)s1 (stereo not drawn)
≥ 40 | O=C(Nc1ccc(-n2cncn2)cc1)c1ccc(C(=O)Nc2ccc3c(c2)C(=O)OC3)s1
1 to 40 | O=C(Nc1ccc(Cl)cc1)c1ccc(C(=O)Nc2ccc(-n3cncn3)cc2)s1
≥ 40 | CN(C(=O)c1ccc(C(=O)Nc2ccc(-n3cncn3)c(F)c2)o1)C1CCCCC1
≥ 40 | O=C(NCC1CCCCC1)c1ccc(C(=O)Nc2ccc(-n3cncn3)cc2)s1
≥ 40 | COc1ccc(NC(=O)c2ccc(C(=O)Nc3ccc(-n4cncn4)cc3)s2)cc1OC
≥ 40 | CC(C)[C@@H](CO)NC(=O)c1ccc(C(=O)Nc2ccc(-n3cncn3)cc2)s1
≥ 40 | CC(C)NC(=O)c1ccc(C(=O)Nc2ccc(-n3cncn3)cc2)s1
1 to 40 | COc1ccc(C(=O)Nc2ccc(C(=O)N3CCC(Oc4cnccn4)CC3)s2)c(C)c1
≥ 40 | O=C(Nc1ccc(C(=O)Nc2ccc(-n3cncn3)cc2)o1)c1ccccc1
≥ 40 | O=C(NCCN1CCOCC1)c1ccc(C(=O)Nc2ccc(-n3cncn3)cc2)s1
1 to 40 | C[C@@H](NC(=O)c1ccc(C(=O)Nc2ccc(-n3cncn3)c(F)c2)o1)C1CCCCC1

IC50 [µM] | Structure (SMILES)
≥ 40 | COC(=O)c1ccc(NC(=O)c2ccc(C(=O)Nc3ccc(OC)cc3C)s2)cc1
≥ 40 | O=C(Nc1ccc(-n2cncn2)cc1)c1ccc(C(=O)Nc2ccccc2Cl)s1
≥ 40 | COc1ccc(C(=O)Nc2ccc(C(=O)Nc3ccc(-n4cncn4)cc3)o2)c(C)c1
≥ 40 | O=C(Nc1ccc(-n2cncn2)cc1)c1ccc(C(=O)N[C@@H]2CCc3ccccc32)s1
≤ 1 | Cc1cc(CN2CCN(C)CC2)ccc1NC(=O)c1ccc(C(=O)Nc2ccc(-n3cncn3)cc2)s1
≥ 40 | Cc1cnc(CNC(=O)c2ccc(C(=O)Nc3ccc(-n4cncn4)cc3)s2)cn1
≥ 40 | COc1ccc(C(=O)Nc2ccc(C(=O)N3CCC(c4ccccn4)C3)s2)c(C)c1 (stereo not drawn)
1 to 40 | COc1ccc(N(C)C(=O)c2ccc(C(=O)Nc3ccc(-n4cncn4)cc3)s2)c(C)c1
≥ 40 | O=C(Nc1ccc(-n2cncn2)cc1)c1ccc(C(=O)Nc2ccc3ncsc3c2)s1
1 to 40 | O=C(NCc1ccccc1)c1ccc(C(=O)Nc2ccc(-n3cncn3)cc2)s1
≥ 40 | O=C(Nc1ccc(-n2cncn2)c(F)c1)c1ccc(C(=O)Nc2ccccc2-n2cccn2)s1
≤ 1 | Cc1cc(N2CCOCC2)ccc1NC(=O)c1ccc(C(=O)Nc2ccc(-n3cncn3)cc2)s1
≤ 1 | COc1ccc(NC(=O)c2ccc(C(=O)Nc3ccc(-n4cncn4)cc3)o2)cc1
≤ 1 | Cc1cc(N(C)CCN(C)C)ccc1NC(=O)c1ccc(C(=O)Nc2ccc(-n3cncn3)cc2)s1
≥ 40 | O=C(Nc1ccc(-n2cncn2)cc1)c1ccc(C(=O)NC2CC2)s1
≥ 40 | COc1cccc(NC(=O)c2ccc(C(=O)Nc3ccc(-n4cncn4)cc3)s2)c1
≥ 40 | O=C(Nc1ccc(-n2cncn2)c(F)c1)c1ccc(C(=O)Nc2ccccc2COc2ccccc2)s1
≤ 1 | COc1ccc(C(=O)Nc2ccc(C(=O)Nc3ccc(-n4cncn4)cc3)s2)c(C)c1
≥ 40 | COc1ccc(NC(=O)c2ccc(C(=O)Nc3ccc4sc(SC)nc4c3)s2)c(C)c1
1 to 40 | O=C(Nc1ccc(-n2cncn2)cc1)c1ccc(C(=O)NC2CCCC2)s1
≤ 1 | O=C(Nc1ccc(-n2cncn2)c(F)c1)c1ccc(C(=O)NC2CCCCC2)o1
1 to 40 | COc1ccc(NC(=O)c2ccc(C(=O)Nc3ccc(F)cc3-n3cncn3)s2)c(C)c1
≥ 40 | Cc1cccc(NC(=O)c2ccc(C(=O)Nc3ccc(-n4cncn4)cc3)s2)n1
≥ 40 | O=C(Nc1ccc(C(=O)Nc2ccc(-n3cncn3)cc2)o1)c1ccncc1
≥ 40 | O=C(Nc1ccc(-n2cncn2)cc1)c1ccc(NC(=O)C2CCCCC2)o1

IC50 [µM] | Structure (SMILES)
≥ 40 | COc1ccc(NC(=O)c2ccc(C(=O)Nc3ccc(-n4cncn4)cc3)s2)cc1F
≥ 40 | O=C(Nc1ccc(-n2cncn2)cc1)c1ccc(C(=O)N[C@@H]2CC3CCC2C3)s1 (stereo partly drawn)
≤ 1 | Cc1cc(Cn2ccnc2)ccc1NC(=O)c1ccc(C(=O)Nc2ccc(-n3cncn3)cc2)s1
1 to 40 | O=C(Nc1ccc(-n2cncn2)cc1)c1ccc(C(=O)Nc2cccc(Cl)c2)s1
≤ 1 | Cc1cc(N[C@H]2CCNC2)ccc1NC(=O)c1ccc(C(=O)Nc2ccc(-n3cncn3)cc2)s1
≥ 40 | CN1CCC(N(C)C(=O)c2ccc(C(=O)Nc3ccc(-n4cncn4)c(F)c3)o2)CC1
≥ 40 | COc1ccc(NC(=O)c2ccc(C(=O)Nc3ccc4nc(C)ccc4c3)s2)c(C)c1
1 to 40 | O=C(Nc1ccc(-n2cncn2)cc1)c1ccc(C(=O)N[C@H]2CCc3ccccc32)s1
1 to 40 | O=C(Nc1ccc(-n2cncn2)c(F)c1)c1ccc(C(=O)Nc2ccccc2C(F)(F)F)s1
≥ 40 | COc1ccc(NC(=O)c2ccc(C(=O)Nc3ccc(N4CCOCC4)cc3)s2)c(C)c1
≥ 40 | COc1ccc(NC(=O)c2ccc(C(=O)Nc3ccc(CN)cc3)s2)c(C)c1
≤ 1 | Cc1cc(N2CCN(C)CC2)ccc1NC(=O)c1ccc(C(=O)Nc2ccc(-n3cncn3)cc2)s1
≥ 40 | O=C(Nc1ccc(-n2cncn2)cc1)c1ccc(C(=O)Nc2cc(F)ccc2F)s1
≥ 40 | CN(C)CCCNC(=O)c1ccc(C(=O)Nc2ccc(-n3cncn3)cc2)s1
≤ 1 | Cc1cc(O)ccc1NC(=O)c1ccc(C(=O)Nc2ccc(-n3cncn3)cc2)s1
≥ 40 | COc1ccc(NC(=O)c2ccc(C(=O)Nc3ccc(-n4cncn4)cc3F)s2)c(C)c1
≥ 40 | O=C(Nc1ccc(-n2cncn2)c(F)c1)c1ccc(C(=O)Nc2ccccc2N2CCOCC2)s1
≥ 40 | Cn1c(NC(=O)c2ccc(C(=O)Nc3ccc(-n4cncn4)cc3)s2)nc2ccccc21
≤ 1 | COc1ccc(NC(=O)c2ccc(C(=O)Nc3ccc(-n4cncn4)cc3)s2)c(C)c1
1 to 40 | O=C(Nc1ccc(-n2cncn2)cc1)c1ccc(C(=O)Nc2nc3c(s2)CCCC3)s1
≥ 40 | O=C(NCc1ccccn1)c1ccc(C(=O)Nc2ccc(-n3cncn3)cc2)s1
1 to 40 | O=C(Nc1ccc(-n2cncn2)c(F)c1)c1ccc(C(=O)N[C@H]2CC[C@H](O)CC2)o1
≥ 40 | COc1ccc(NC(=O)c2ccc(C(=O)Nc3ccc(-c4c(C)noc4C)cc3)s2)c(C)c1
